Tests used:
Type in all cases: cell-based
[1] = biological target: EGFR L858R/T790M Ba/F3 cells (Homo sapiens (Human), UniProt P00533, L858R/T790M); experiment: Ba/F3 cell growth inhibition (MTS assay), EGFR L858R/T790M; details: for IC50: Assay 1, L858R/T790M, read-out: EGFR Ba/F3 cells IC 50 (nM) Assay 1 L858R/T790M
Text: (§1) The specific cDNAs encoding the oncogenic alterations (EGFR: Del 19, L858R, L718Q, L844V, Del/T790M, L858R/T790M, Del 19/L718Q, Del 19/L844V, Del 19/T790M/L718Q and L858R/T790M/L718Q; FGFR: TEL-FGFR1, TEL-FGFR2, TEL-FGFR1 V561M, TEL-FGFR2 V561M; ALK: EML4-ALK; ROS1: CD74-ROS1) were cloned into the pDNA-Dual (BD Biosciences) vector using standard molecular biology techniques. Mutations were introduced using site-directed mutagenesis (Agilent) with mutant specific primers according to the manufacturer's instructions. All constructs were confirmed by DNA sequencing. The constructs were introduced into Ba/F3 cells using retroviral infection. Polyclonal cell lines were established by puromycin selection and subsequently cultured in the absence of interleukin-3 (IL-3). Uninfected Ba/F3 cells or cell lines expressing green fluorescent protein (GFP) were used as controls.
(§2) Growth and inhibition of growth was assessed by MTS assay. This assay, a colorimetric method for determining the number of viable cells, is based on the bioreduction of 3-(4,5-dimethylthiazol-2-yl)-5-(3-carboxymethoxyphenyl)-2-(4-sulfophenyl)-2H-tetrazolium (MTS) by cells to a formazan product that is soluble in cell culture medium, can be detected spectrophotometrically and was performed according to the manufacturer's recommended conditions. Ba/F3 cells were exposed to treatment for 72 hours and the number of cells used per experiment determined empirically to assure linear growth kinetics over that time period. All experimental points were set up in six to twelve wells and all experiments were repeated at least three times. […] The curves were fitted using a non-linear regression model with a sigmoidal dose response.

[2] = biological target: EGFR Del Ba/F3 cells (Homo sapiens, UniProt P00533, cells depend on it, form not given); experiment: Ba/F3 cell growth inhibition (MTS assay), EGFR Del; details: for IC50: Assay 1, Del, read-out: EGFR Ba/F3 cells IC 50 (nM) Assay 1 Del
Text: as §1, §2

[3] = biological target: EGFR Del/T790M Ba/F3 cells (Homo sapiens, UniProt P00533, T790M, cells depend on it, form not given); experiment: Ba/F3 cell growth inhibition (MTS assay), EGFR Del/T790M; details: for EGFR activity (% Control, 100 nM drug) Del/T790M: Table G; for EGFR activity (% Control, 100 nM drug) DEL/T790M: Table F; for IC50: Assay 1, Del/T790M, read-out: EGFR Ba/F3 cells IC 50 (nM) Assay 1 Del/T790M
Text: as §1, §2

[4] = biological target: EGFR L858R Ba/F3 cells (Homo sapiens (Human), UniProt P00533, L858R); experiment: Ba/F3 cell growth inhibition (MTS assay), EGFR L858R; details: for IC50: Assay 1, L858R, read-out: EGFR Ba/F3 cells IC 50 (nM) Assay 1 L858R
Text: as §1, §2

[5] = biological target: EGFR L858R/T790M/L718Q Ba/F3 cells (Homo sapiens (Human), UniProt P00533, L718Q/L858R/T790M); experiment: Ba/F3 cell growth inhibition (MTS assay), EGFR L858R/T790M/L718Q; details: for EGFR activity (% Control, 100 nM drug) L858R/T790M/L718Q: Table F; for IC50: Assay 1, T/L/L718Q, read-out: EGFR Ba/F3 cells IC 50 (nM) Assay 1 T/L/L718Q
Text: as §1, §2

[6] = biological target: EGFR L718Q/L858R Ba/F3 cells (Homo sapiens (Human), UniProt P00533, L718Q/L858R); experiment: Ba/F3 cell growth inhibition (MTS assay), EGFR L858R/L718Q; details: for EGFR activity (% Control, 100 nM drug) L858R/L718Q: Table F; for IC50: Assay 1, L718Q/L858R, read-out: EGFR Ba/F3 cells IC 50 (nM) Assay 1 L718Q/L858R

| Compound | EGFR activity (% Control, 100 nM drug) L858R/T790M ([1]; Table G) | EGFR activity (% Control, 100 nM drug) Del ([2]; Table G) | EGFR activity (% Control, 100 nM drug) Del/T790M [3] | EGFR activity (% Control, 100 nM drug) L858R ([4]; Table G) | EGFR activity (% Control, 100 nM drug) L858R/T790M ([1]; Table F) | EGFR activity (% Control, 100 nM drug) L858R/T790M/L718Q [5] | EGFR activity (% Control, 100 nM drug) Del ([2]; Table F) | EGFR activity (% Control, 100 nM drug) L858R/L718Q [6] | EGFR activity (% Control, 100 nM drug) DEL/T790M [3] | EGFR activity (% Control, 100 nM drug) L858R ([4]; Table F) | also measured |
| --- | --- | --- | --- | --- | --- | --- | --- | --- | --- | --- | --- |
| C=CC(=O)N1CCC[C@H]1C(=O)Nc1cc2c(N(C)C(=O)NCc3ccccc3)ncnc2cc1OC [Compound 5A, (S)-1-acryloyl-N-(4-(3-benzyl-1-methylureido)-7-methoxyquinazolin-6-yl)pyrrolidine-2-carboxamide] | 96 % Control | 100 % Control | 110 % Control | 107 % Control | – | – | – | – | – | – | – |
| COc1ccc(NC(=O)/C=C/CN(C)C)cc1Nc1ncc2c(n1)N(C)C(=O)N(c1ccccc1)C2 [Compound 7A, (E)-4-(dimethylamino)-N-(4-methoxy-3-((8-methyl-7-oxo-6-phenyl-5,6,7,8-tetrahydropyrimido[4,5-d]pyrimidin-2-yl)amino)phenyl)but-2-enamide] | – | – | – | – | 102 % Control | 106 % Control | 35 % Control | 96 % Control | 94 % Control | 5 % Control | – |
| C=CC(=O)Nc1ccc(OC)c(Nc2cc(N(C)C(=O)Nc3ccccc3)ncn2)c1 [Compound 12A] | – | – | – | – | 48 % Control | 84 % Control | 0 % Control | 47 % Control | 117 % Control | 1 % Control | – |
| C=CC(=O)Nc1cccc(Nc2cc(N(C)C(=O)Nc3ccccc3)ncn2)c1 [Compound 13A] | – | – | – | – | 71 % Control | 89 % Control | 13 % Control | 90 % Control | 90 % Control | 3 % Control | – |
| C=CC(=O)Nc1cccc(N(C(=O)Nc2ccccc2)c2cc(NC)ncn2)c1 [Compound 14A] | – | – | – | – | 75 % Control | 87 % Control | 24 % Control | 76 % Control | 98 % Control | 1 % Control | – |
| C=CC(=O)Nc1cccc(N(C(=O)NCc2ccccc2)c2cc(NC)ncn2)c1 [Compound 15A] | – | – | – | – | 48 % Control | 86 % Control | 47 % Control | 81 % Control | 107 % Control | 3 % Control | IC50 [1]: 376 nM; IC50 [5]: 3260 nM; IC50 [2]: 91.9 nM; IC50 [6]: 2150 nM; IC50 [3]: 842 nM; IC50 [4]: 17.7 nM |
| C=CC(=O)Nc1ccc(OC)c(Nc2cc(N(C)C(=O)NCc3ccccc3)ncn2)c1 [Compound 16A] | – | – | – | – | 71 % Control | 92 % Control | 78 % Control | 75 % Control | 86 % Control | 117 % Control | – |
| C=CC(=O)Nc1cccc(Nc2cc(N(C)C(=O)NCc3ccccc3)ncn2)c1 [Compound 17A] | – | – | – | – | 52 % Control | 85 % Control | 28 % Control | 81 % Control | 85 % Control | 2 % Control | IC50 [1]: 275 nM; IC50 [5]: 2500 nM; IC50 [2]: 63.9 nM; IC50 [6]: 1960 nM; IC50 [3]: 682 nM; IC50 [4]: 7.62 nM |
| C=CC(=O)Nc1ccc(OC)c(Nc2cc(N(C)C(=O)Nc3ccc(F)c(Cl)c3)ncn2)c1 [Compound 18A] | – | – | – | – | 85 % Control | 92 % Control | 30 % Control | 88 % Control | 84 % Control | 1 % Control | – |
| C=CC(=O)Nc1cccc(Nc2cc(N(C)C(=O)Nc3ccc(F)c(Cl)c3)ncn2)c1 [Compound 19A] | – | – | – | – | 101 % Control | 99 % Control | 79 % Control | 74 % Control | 71 % Control | 100 % Control | – |
| C=CC(=O)N1CCC[C@H]1C(=O)Nc1ccc(OC)c(Nc2cc(N(C)C(=O)NCc3ccccc3)ncn2)c1 [Compound 23A] | 111 % Control | 106 % Control | 102 % Control | 99 % Control | – | – | – | – | – | – | – |
| C=CC(=O)N1CCC[C@@H]1C(=O)Nc1ccc(OC)c(Nc2cc(N(C)C(=O)NCc3ccccc3)ncn2)c1 [Compound 24A] | 108 % Control | 95 % Control | 101 % Control | 84 % Control | – | – | – | – | – | – | – |
| C=CC(=O)Nc1cccc(Nc2cc(N(C(=O)Nc3ccccc3)c3ccc(N4CCN(C)CC4)cc3)ncn2)c1 [Compound 26A] | 100 % Control | 87 % Control | 91 % Control | 11 % Control | – | – | – | – | – | – | – |
| C=CC(=O)N1CCC[C@H]1C(=O)Nc1cc2c(N(C)C(=O)Nc3ccccc3)ncnc2cc1OC [Compound 27A] | 102 % Control | 95 % Control | 76 % Control | 87 % Control | – | – | – | – | – | – | – |
| COc1cc2ncnc(N(C)C(=O)Nc3ccccc3)c2cc1NC(=O)[C@@H]1CCCN1C(=O)CCl [Compound 28A] | 97 % Control | 102 % Control | 83 % Control | 94 % Control | – | – | – | – | – | – | – |
| C=CC(=O)Nc1cccc(Nc2cc(N(C(=O)NCc3ccccc3)c3ccc(N4CCN(C)CC4)cc3)ncn2)c1 [Compound 30A] | 103 % Control | 94 % Control | 104 % Control | 10 % Control | – | – | – | – | – | – | – |
| C=CC(=O)N1CCC[C@H]1C(=O)Nc1cc2c(N(CCOC)C(=O)NCc3ccccc3)ncnc2cc1OC [Compound 31A] | 112 % Control | 111 % Control | 110 % Control | 108 % Control | – | – | – | – | – | – | – |
| C=CC(=O)N1CC[C@@H](CN(C(=O)Nc2ccccc2)c2cc(Nc3ccc(N4CCN(C)CC4)cc3OC)ncn2)C1 [Compound 32A] | 110 % Control | 104 % Control | 106 % Control | 99 % Control | – | – | – | – | – | – | – |
| C=CC(=O)N1CC[C@H](CN(C(=O)Nc2ccccc2)c2cc(Nc3ccc(N4CCN(C)CC4)cc3OC)ncn2)C1 [Compound 33A] | 106 % Control | 102 % Control | 109 % Control | 101 % Control | – | – | – | – | – | – | – |
